Measurements taken from patent US5773464A, “C-10 epoxy taxanes” (Bristol-Myers Squibb Company, priority 1997, dated 1998).
Like-named read-outs stand apart in the source and are kept apart here.

Test system: HCT-116 human colon carcinoma cells
Assay: Cytotoxicity assay (MTS), 72 hour exposure
Type: cell-based
Details: HCT-116, 72 h, read-out: Cytotoxicity Assay IC50 (nM) against HCT 116 Human colon tumor cell line
Description: Cytoxicity was assessed in HCT-116 human colon carcinoma cells by MTS (3-(4,5-dimethylthiazol-2-yl)-5-(3-carboxymethoxyphenyl)-2-(4-sulphenyl)-2H-tetrazolium, inner salt) assay as reported in T. L. Riss, et. al., "Comparison of MTT, XTT, and a novel tetrazolium compound MTS for in vitro proliferation and chemosensitivity assays.," Mol. Biol. Cell 3 (Suppl.):184a, 1992. Cells were plated at 4,000 cell/well in 96 well microtiter plates and 24 hours later drugs were added and serial diluted. The cells were incubated at 37° form 72 hours at which time the tetrazolium dye, MTS at 333 μg/ml (final concentration), in combination with the electron coupling agent phenazine methosulfate at 25 μM (final concentration) was added. A dehydrogenase enzyme in live cells reduces the MTS to a form that absorbs light at […] which can be quantitated spectrophotometrically. The greater the absorbance the greater the number of live cells. The results are expressed as an IC50, which is the drug concentration required to inhibit cell proliferation (i.e. absorbance at 450 nm) to 50% of that of untreated control cells. The IC50 values for compounds evaluated in this assay are evaluated in Table I.
^1 Cytoxicity was determined after a 72 hour exposure by MTS assay.

[1] = 72 hour exposure, MTS assay, test comparing Ie with paclitaxel, run on a different day

COCO[C@H]1C[C@H]2OC[C@@]2(OC(C)=O)[C@H]2[C@H](OC(=O)c3ccccc3)[C@]3(O)C[C@H](OC(=O)[C@H](O)[C@@H](NC(=O)c4ccccc4)c4ccccc4)C(C)=C(C4(CO4)C(=O)[C@]12C)C3(C)C (stereo partly shown) [Compound Ie]
IC50 [1]: 1.5 nM

CC(=O)O[C@@]12CO[C@@H]1C[C@H](O)[C@@]1(C)C(=O)C3(CO3)C3=C(C)[C@@H](OC(=O)[C@H](O)[C@@H](NC(=O)c4ccccc4)c4ccccc4)C[C@@](O)([C@@H](OC(=O)c4ccccc4)[C@H]21)C3(C)C (stereo partly shown) [Compound Ia]
IC50: 2 nM

CC(=O)O[C@H]1C(=O)[C@@]2(C)[C@H]([C@H](OC(=O)c3ccccc3)[C@]3(O)C[C@H](OC(=O)[C@H](O)[C@@H](NC(=O)c4ccccc4)c4ccccc4)C(C)=C1C3(C)C)[C@]1(OC(C)=O)CO[C@@H]1C[C@@H]2O [paclitaxel]
IC50 (72 hour exposure, MTS assay, test comparing Ia with paclitaxel): 2.9 nM | IC50 [1]: 1 nM
